The results in this text go back to PubChem BioAssay (NCI).

Test systems include 786-0 renal; A498 renal; BT-549 breast; DU-145 prostate; HCC-2998 colon; HS 578T breast; IGROV1 ovarian; KM12 colon; NCI-H226 lung; NCI-H23 lung; OVCAR-5 ovarian; RPMI-8226 leukemia; SF-268 CNS; T-47D breast.
Common to all, as to experiment: NCI-60 cell line screen, 48 h

Molecules are shown by their SMILES.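 Briefly, cells in 96-well plates were exposed to five compound concentrations for 48 h, and endpoints were estimated by linear interpolation. Definition used: TGI = concentration required for complete inhibition of growth.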

Consider `CC(=O)O[C@H]1CC[C@@]2(C)C(=CC[C@H]3[C@@H]4C[C@H](N5CCN(C)CC5)[C@H](OC(C)=O)[C@@]4(C)CC[C@@H]32)C1`, for which the TGI with 786-0 renal was 35.3 µM; in the assay with A498 renal, 48.3 µM; in the assay on BT-549 breast, 32.8 µM; with DU-145 prostate, > 100 µM; in the assay on HCC-2998 colon, 30.1 µM; in the assay on HS 578T breast, 61.8 µM. Besides, the TGI in the assay on IGROV1 ovarian was 37.9 µM; in the assay with KM12 colon, 32.3 µM; with NCI-H226 lung, > 85.6 µM; with NCI-H23 lung it was 48.3 µM; in the assay on OVCAR-5 ovarian, 76.9 µM; in the assay on RPMI-8226 leukemia, 14.7 µM. The values for the TGI in the assay on SF-268 CNS and with T-47D breast were 42.7 µM and 41.2 µM, respectively.

For `N/C(=N\Nc1cccc(Cl)c1)c1cccnc1`, the TGI with 786-0 renal was > 100 µM; in the assay on A498 renal it was 87.4 µM; in the assay with BT-549 breast, > 100 µM; with DU-145 prostate, > 100 µM; in the assay on HCC-2998 colon, > 100 µM; in the assay with HS 578T breast it was > 100 µM. Further, the TGI was > 100 µM with IGROV1 ovarian; > 100 µM in the assay with KM12 colon; > 100 µM with NCI-H226 lung; > 100 µM in the assay with NCI-H23 lung; > 100 µM in the assay with OVCAR-5 ovarian; > 89.9 µM in the assay with RPMI-8226 leukemia. Also, the TGI is > 100 µM with SF-268 CNS and > 92.6 µM in the assay on T-47D breast.

For the compound `CN(C)c1ccc(/C=C(\NC(=O)c2ccccc2)c2nc3ccccc3c(=O)o2)cc1`, the TGI with 786-0 renal, in the assay with A498 renal, with BT-549 breast, in the assay on DU-145 prostate, in the assay on HCC-2998 colon and with HS 578T breast was > 100 µM each time. Also, the TGI with IGROV1 ovarian, in the assay on KM12 colon, with NCI-H226 lung, with NCI-H23 lung, with OVCAR-5 ovarian and with RPMI-8226 leukemia was > 100 µM in each case. In addition, the TGI in the assay with SF-268 CNS and in the assay on T-47D breast was > 100 µM throughout.

Consider `CNc1nc2c(C)ccc3nc(N(C)C)nc-3c2n1C`, for which the TGI in the assay on 786-0 renal, with A498 renal, in the assay with BT-549 breast, with DU-145 prostate, with HCC-2998 colon and with HS 578T breast was > 10 µM throughout. The TGI with IGROV1 ovarian, in the assay with KM12 colon, in the assay with NCI-H226 lung, in the assay on NCI-H23 lung, with OVCAR-5 ovarian and with RPMI-8226 leukemia was > 10 µM in each case. The TGI with SF-268 CNS and in the assay with T-47D breast was > 10 µM in each case.
